The values below come from ChEMBL document CHEMBL3046002, “Synthesis and antimicrobial activity of coumarin pyrazole pyrimidine 2,4,6(1H,3H,5H)triones and thioxopyrimidine4,6(1H,5H)diones” (2013).

≈ marks a conversion by molar mass, not a printed value. Calls of active or inactive are those of the source. The rule behind the calls is not given here.

For assay [1], the system named is Aspergillus niger. As to the kind of experiment: Antimicrobial activity against Aspergillus niger assessed as growth inhibition zone after 48 hr by agar cup bioassay. Format: functional, organism-based.
The next assay has as its system Klebsiella pneumoniae. Briefly: Antimicrobial activity against Klebsiella pneumoniae assessed as growth inhibition after 24 hr by broth dilution method. The assay is classed as functional. For orientation: Broth dilution looks for growth in wells or tubes with falling amounts of substance.
A further assay relates to Bacillus subtilis. Briefly: Antimicrobial activity against Bacillus subtilis assessed as growth inhibition after 24 hr by broth dilution method. The assay is classed as functional.
In assay [2] the test system is Staphylococcus epidermidis. As to the kind of experiment: Antimicrobial activity against Staphylococcus epidermidis assessed as growth inhibition after 24 hr by broth dilution method. Format: functional.
In another assay the test system is Pseudomonas aeruginosa. As to the kind of experiment: Antimicrobial activity against Pseudomonas aeruginosa assessed as growth inhibition after 24 hr by broth dilution method. Format: functional.
A further assay has as its system Escherichia coli. Briefly: Antimicrobial activity against Escherichia coli assessed as growth inhibition after 24 hr by broth dilution method. The assay is classed as functional.
The next assay deals with Staphylococcus aureus. Briefly: Antimicrobial activity against Staphylococcus aureus assessed as growth inhibition after 24 hr by broth dilution method. The assay is classed as functional.
Assay [3] relates to Aspergillus niger. As to the kind of experiment: Antimicrobial activity against Aspergillus niger assessed as diameter of growth inhibition zone at 100 ug/ml after 48 hr by agar cup bioassay. Format: functional. As to conditions: read-out: DIZ.
The subject of assay [4] is Aspergillus niger. As to the kind of experiment: Antimicrobial activity against Aspergillus niger assessed as diameter of growth inhibition zone at 150 ug/ml after 48 hr by agar cup bioassay. As to conditions: read-out: DIZ. Format: functional.
Assay [5] has as its system Aspergillus niger. As to the kind of experiment: Antimicrobial activity against Aspergillus niger assessed as diameter of growth inhibition zone at 30 ug/ml after 48 hr by agar cup bioassay. Format: functional. As to conditions: read-out: DIZ.

Broadly, the MIC is the lowest concentration found to suppress growth.

In the case of `O=C1NC(=O)C(=Cc2cn(-c3ccccc3)nc2-c2cc3ccccc3oc2=O)C(=O)N1`, the “growth inhibition (GI)” value with Aspergillus niger [1] is “inactive”. Further, the MIC in the assay on Klebsiella pneumoniae is 150 µg/mL (≈ 352 µM); in the assay with Bacillus subtilis it was 300 µg/mL (≈ 704 µM); in assay [2], 300 µg/mL (≈ 704 µM); in the assay with Pseudomonas aeruginosa it was 150 µg/mL (≈ 352 µM); in the assay with Escherichia coli it was 300 µg/mL (≈ 704 µM); in the assay with Staphylococcus aureus, 300 µg/mL (≈ 704 µM).
Take `O=C1NC(=O)C(=Cc2cn(-c3ccccc3)nc2-c2cc3cc(Cl)c(Cl)cc3oc2=O)C(=O)N1`: the “growth inhibition (GI)” value in the assay with Aspergillus niger [1] was “inactive”. The MIC with Klebsiella pneumoniae amounted to 150 µg/mL (≈ 303 µM); with Bacillus subtilis it was 300 µg/mL (≈ 606 µM); in [2] it was 300 µg/mL (≈ 606 µM); in the assay on Pseudomonas aeruginosa, 150 µg/mL (≈ 303 µM); in the assay on Escherichia coli, 300 µg/mL (≈ 606 µM); in the assay with Staphylococcus aureus, 300 µg/mL (≈ 606 µM).
In the case of `O=C1NC(=O)C(=Cc2cn(-c3ccccc3)nc2-c2cc3cc(Br)c(Br)cc3oc2=O)C(=O)N1`, the MIC in the assay with Klebsiella pneumoniae was 300 µg/mL (≈ 514 µM); in the assay on Bacillus subtilis, 150 µg/mL (≈ 257 µM); in assay [2], 150 µg/mL (≈ 257 µM); in the assay with Pseudomonas aeruginosa, 150 µg/mL (≈ 257 µM); in the assay with Escherichia coli, 150 µg/mL (≈ 257 µM); in the assay with Staphylococcus aureus it was 150 µg/mL (≈ 257 µM). The zone of inhibition at 100 µg/mL in the assay on Aspergillus niger [3] was determined as 7 mm. Besides, the zone of inhibition at 150 µg/mL in the assay on Aspergillus niger [4] amounted to 10 mm.
With `O=C1NC(=S)NC(=O)C1=Cc1cn(-c2ccccc2)nc1-c1cc2cc(Br)ccc2oc1=O`, the “growth inhibition (GI)” value with Aspergillus niger [1] is “inactive”. Besides, the MIC in the assay on Klebsiella pneumoniae stood at 150 µg/mL (≈ 288 µM); with Bacillus subtilis, 600 µg/mL (≈ 1150 µM); in assay [2], 300 µg/mL (≈ 575 µM); in the assay with Pseudomonas aeruginosa it was 300 µg/mL (≈ 575 µM); in the assay on Escherichia coli, 300 µg/mL (≈ 575 µM); in the assay with Staphylococcus aureus, 600 µg/mL (≈ 1150 µM).
Turning to `OC(Cn1cncn1)(Cn1cncn1)c1ccc(F)cc1F` [FLUCONAZOLE], in the assay with Aspergillus niger [5], the zone of inhibition at 30 µg/mL worked out at 30 mm.
For the molecule `O=C1NC(=S)NC(=O)C1=Cc1cn(-c2ccccc2)nc1-c1cc2cc(Cl)c(Cl)cc2oc1=O`, in the assay on Aspergillus niger [1], the “growth inhibition (GI)” value is “inactive”. The MIC with Klebsiella pneumoniae turned out to be 150 µg/mL (≈ 293 µM); in the assay with Bacillus subtilis, 300 µg/mL (≈ 587 µM); in assay [2] it was 300 µg/mL (≈ 587 µM); with Pseudomonas aeruginosa it was 300 µg/mL (≈ 587 µM); in the assay with Escherichia coli, 600 µg/mL (≈ 1170 µM); in the assay on Staphylococcus aureus, 150 µg/mL (≈ 293 µM).
Take `O=C1NC(=S)NC(=O)C1=Cc1cn(-c2ccccc2)nc1-c1cc2cc(Cl)ccc2oc1=O`: the “growth inhibition (GI)” value in the assay with Aspergillus niger [1] is “inactive”. Besides, the minimal inhibitory concentration (MIC) with Klebsiella pneumoniae came out at 150 µg/mL (≈ 315 µM); in the assay on Bacillus subtilis, 150 µg/mL (≈ 315 µM); in assay [2] it was 600 µg/mL (≈ 1260 µM); with Pseudomonas aeruginosa, 150 µg/mL (≈ 315 µM); with Escherichia coli it was 300 µg/mL (≈ 629 µM); in the assay on Staphylococcus aureus, 300 µg/mL (≈ 629 µM).
For the molecule `O=C1NC(=S)NC(=O)C1=Cc1cn(-c2ccccc2)nc1-c1cc2cc(Br)c(Br)cc2oc1=O`, in the assay on Aspergillus niger [1], the “growth inhibition (GI)” value was “inactive”. In addition, the MIC in the assay on Klebsiella pneumoniae was 150 µg/mL (≈ 250 µM); with Bacillus subtilis it was 150 µg/mL (≈ 250 µM); in assay [2] it was 300 µg/mL (≈ 500 µM); with Pseudomonas aeruginosa it was 150 µg/mL (≈ 250 µM); in the assay on Escherichia coli, 150 µg/mL (≈ 250 µM); in the assay on Staphylococcus aureus it was 150 µg/mL (≈ 250 µM).
For `O=C1NC(=S)NC(=O)C1=Cc1cn(-c2ccccc2)nc1-c1cc2cc3ccccc3cc2oc1=O`, the “growth inhibition (GI)” value with Aspergillus niger [1] is “inactive”. In addition, the MIC in the assay with Klebsiella pneumoniae was 150 µg/mL (≈ 305 µM); in the assay with Bacillus subtilis, 300 µg/mL (≈ 609 µM); in assay [2], 300 µg/mL (≈ 609 µM); in the assay with Pseudomonas aeruginosa, 150 µg/mL (≈ 305 µM); in the assay with Escherichia coli, 600 µg/mL (≈ 1220 µM); in the assay on Staphylococcus aureus it was 150 µg/mL (≈ 305 µM).
`O=C1NC(=S)NC(=O)C1=Cc1cn(-c2ccccc2)nc1-c1cc2ccccc2oc1=O`: the “growth inhibition (GI)” value in the assay on Aspergillus niger [1] is “inactive”. The MIC with Klebsiella pneumoniae was determined as 150 µg/mL (≈ 339 µM); in the assay with Bacillus subtilis, 300 µg/mL (≈ 678 µM); in assay [2], 150 µg/mL (≈ 339 µM); with Pseudomonas aeruginosa it was 300 µg/mL (≈ 678 µM); with Escherichia coli, 600 µg/mL (≈ 1360 µM); in the assay on Staphylococcus aureus, 150 µg/mL (≈ 339 µM).
`O=C1NC(=O)C(=Cc2cn(-c3ccccc3)nc2-c2cc3cc(Br)ccc3oc2=O)C(=O)N1`: the minimum inhibitory concentration (MIC) was 150 µg/mL (≈ 297 µM) in the assay with Klebsiella pneumoniae; 150 µg/mL (≈ 297 µM) in the assay with Bacillus subtilis; 150 µg/mL (≈ 297 µM) in assay [2]; 600 µg/mL (≈ 1190 µM) in the assay with Pseudomonas aeruginosa; 600 µg/mL (≈ 1190 µM) in the assay with Escherichia coli; 150 µg/mL (≈ 297 µM) in the assay with Staphylococcus aureus. Also, the zone of inhibition at 100 µg/mL in the assay with Aspergillus niger [3] stood at 14 mm. In addition, the zone of inhibition at 150 µg/mL in the assay with Aspergillus niger [4] is 20 mm.
With `O=C1NC(=O)C(=Cc2cn(-c3ccccc3)nc2-c2cc3cc(Cl)ccc3oc2=O)C(=O)N1`, in the assay with Aspergillus niger [1], the “growth inhibition (GI)” value is “inactive”. Moreover, the MIC (in the assay on Klebsiella pneumoniae; with Bacillus subtilis; in assay [2]; in the assay on Pseudomonas aeruginosa; in the assay on Escherichia coli; in the assay on Staphylococcus aureus) was 150 µg/mL (≈ 325 µM) in each case.
Regarding `O=C1NC(=O)C(=Cc2cn(-c3ccccc3)nc2-c2cc3cc4ccccc4cc3oc2=O)C(=O)N1`, the “growth inhibition (GI)” value with Aspergillus niger [1] is “inactive”. Also, the MIC in the assay with Klebsiella pneumoniae is 300 µg/mL (≈ 630 µM); with Bacillus subtilis it was 150 µg/mL (≈ 315 µM); in [2], 300 µg/mL (≈ 630 µM); in the assay with Pseudomonas aeruginosa, 150 µg/mL (≈ 315 µM); in the assay with Escherichia coli, 300 µg/mL (≈ 630 µM); in the assay on Staphylococcus aureus, 300 µg/mL (≈ 630 µM).
For the molecule `O=C(O)c1cn(C2CC2)c2cc(N3CCNCC3)c(F)cc2c1=O` [CIPROFLOXACIN], the MIC is 25 µg/mL (≈ 75.4 µM) in the assay with Klebsiella pneumoniae, 24 µg/mL (≈ 72.4 µM) in the assay with Bacillus subtilis, 22 µg/mL (≈ 66.4 µM) in [2] and 20 µg/mL (≈ 60.4 µM) in the assay with Escherichia coli.
